# From patent US20220280594A1, “APPLICATION OF POLYPEPTIDE OR DERIVATIVE THEREOF” (CHENGDU HUITAI BIOMEDICINE CO., LTD., priority 2019, published 2022)
# Ends that are not written are not given here. PEG = not defined here
# Columns and labels:
# Format in all cases: cell-based
# [1] = tested on: human thyroid cancer cells (FRO); test: scratch assay, migration of FRO cells; conditions: 10 μM, 48 hours, control group 60.34 ± 8.32
# Procedure, shortened: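 FRO monolayers were scratched, washed, and cultured 48 h in 2% FBS medium with polypeptide derivatives at 10 μM or PBS control, three wells per group. Migration rate (%) = (original − current scratch width)/original width × 100, measured from images.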
# [2] = tested on: human pancreatic cancer cells (PANC-1); test: scratch assay, migration of PANC-1 cells; conditions: PANC-1, 10 μM, 48 hours; control group 66.65 ± 3.37
# Procedure, shortened: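 PANC-1 monolayers were scratched, then cultured for 48 h with 10 μM test compound in 2% FBS medium, in three parallel wells per group against a PBS control. Migration rate (%) was calculated as (original minus current scratch width) / original width × 100, from imaged wells.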
# [3] = tested on: human pancreatic cancer cells (PANC-1); test: transwell migration assay, PANC-1 cells; conditions: PANC-1 transwell migration, 10 μM, 24 hours; control group 360 ± 60
# Procedure, shortened: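 Serum-free PANC-1 cells placed in the upper transwell chamber with complete medium below; after 4-5 h, peptide added to the upper chamber at a final 10 μM. Migration ran 24 h at 37 °C; cells on the membrane underside were methanol-fixed, crystal violet-stained and counted by microscopy.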
# [4] = tested on: human liver adenocarcinoma cells (SK-HEP-1); test: transwell invasion assay, SK-HEP-1 cells; conditions: SK-HEP-1 transwell invasion, 10 μM, 24 hours; control group 767 ± 91
# Procedure, shortened: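 Serum-free SK-HEP-1 cells were seeded in matrigel-coated upper chambers over complete medium. After 4-5 h, peptide was added to the upper chamber at 10 μM final. Following 24 h at 37° C., invaded cells were fixed, crystal violet-stained, imaged and counted.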
# [5] = tested on: human oral epidermoid carcinoma KB cells; test: scratch assay, migration of KB cells; conditions: 10 μM, 48 hours, control group 54.03 ± 4.21
# Procedure, shortened: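 Monolayers of KB cells were scratched, washed with PBS, then cultured 48 hours in 2% FBS medium containing test polypeptide (10 μM) or PBS control, in triplicate wells. From images, migration rate (%) = (original − current scratch width)/original width × 100.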
# [6] = tested on: human liver adenocarcinoma cells (SK-HEP-1); test: transwell migration assay, SK-HEP-1 cells; conditions: SK-HEP-1 transwell migration, 10 μM, 24 hours; control group 1 782 ± 108, control group 2 768 ± 86
# Procedure, shortened: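 SK-HEP-1 cells in serum-free medium seeded in upper transwell chamber (2-3×10^5 cells/mL) over complete medium; after 4-5 h at 37 °C, 5% CO2, peptide added at 10 μM final in upper chamber. After 24 h, migrated cells fixed in methanol, crystal-violet stained, imaged and counted.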
# [7] = tested on: human breast cancer cells (MDA-MB-453); test: scratch assay, migration of MDA-MB-453 cells; conditions: MDA-MB-453, 10 μM, 48 hours; control group 32.42 ± 2.04
# Procedure, shortened: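 Confluent MDA-MB-453 monolayers were scratched, then treated with peptide at 10 μM in 2% FBS medium for 48 h, with a PBS control and triplicate wells. Migration rate (%) was taken as (original − current scratch width)/original width ×100 from images.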
# [8] = tested on: human pancreatic cancer cells (PANC-1); test: transwell invasion assay, PANC-1 cells; conditions: PANC-1 transwell invasion, 10 μM, 24 hours; control group 727 ± 68
# Procedure, shortened: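 Serum-free PANC-1 cells were seeded in matrigel-coated upper chambers with complete medium below. After 4-5 hours at 37° C., peptide was added at 10 μM final. Following 24 hours, invaded cells on the lower membrane surface were fixed, crystal violet-stained, imaged and counted against untreated controls.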
Substance,"Migration rate (%) (mean ± SD, P) [1]","Migration rate (%) (mean ± SD, P) [2]","Number of cells (mean ± SD, P), migrated cells [3]","Number of cells (mean ± SD, P), invaded cells [4]","Migration rate (%) (mean ± SD, P) [5]","Number of cells (mean ± SD, P), migrated cells [6]","Migration rate (%) (mean ± SD, P) [7]","Number of cells (mean ± SD, P), invaded cells [8]"
"N49: SEQ ID NO: 1 with A7R, deletion of positions 1-2 and position 18, PEG modification at the carboxyl terminal (VRFLRKENVTQDAED-{PEG}; reading uncertain)","15.77 ± 2.99,** %","17.71 ± 7.65,*** %","137 ± 29,***","335 ± 32,***","16.51 ± 3.93,** %","137 ± 11,****","15.79 ± 4.48,** %","141 ± 7,****"
"N53: SEQ ID NO: 1 with A15R, one amino acid added at each terminal, PEG modification at the carboxyl terminal (FYRVRFLAKENVTQDREDNC-{PEG}; reading uncertain)","20.32 ± 4.58,** %","15.85 ± 7.32,*** %","131 ± 8,***","143 ± 19,****","8.83 ± 1.75,*** %","265 ± 32,****","8.02 ± 3.35,*** %","228 ± 25,****"
N39: SEQ ID NO: 1 with addition of two amino acids and PEG modification at the carboxyl terminal (YRVRFLAKENVTQDAEDNTC-{PEG}; reading uncertain),"36.51 ± 4.36,* %","16.29 ± 8.00,*** %","262 ± 13,*","88 ± 25,****","9.21 ± 4.20,*** %","261 ± 25,****","11.02 ± 6.8,** %","278 ± 16,****"
N37: SEQ ID NO: 1 with addition of two amino acids to the carboxyl terminal and PEG modification at the amino terminal ({PEG}-YRVRFLAKENVTQDAEDNCT; reading uncertain),"36.47 ± 5.69,* %","18.23 ± 6.77,*** %","113 ± 11,***","233 ± 13,****","24.48 ± 2.51,* %","84 ± 7,****","15.13 ± 3.55,** %","359 ± 34,***"
"N31: SEQ ID NO: 1 with deletion of positions 3, 4, 11 and 15-18 and PEG modification at the carboxyl terminal (YRFLAKENTQD-{PEG}; reading uncertain)","9.77 ± 1.96,*** %","13.64 ± 7.59,*** %","217 ± 40,**","269 ± 17,****","7.17 ± 1.67,*** %","90 ± 6,****","10.49 ± 3.13,*** %","365 ± 57,***"
"N42: SEQ ID NO: 1 with deletion of positions 1-5 and 15-18, PEG at the amino terminal, one amino acid added at the carboxyl terminal ({PEG}-LAKENVTQDR; reading uncertain)","25.71 ± 2.79,** %","24.26 ± 7.91,** %","236 ± 14,**","149 ± 29,****","8.92 ± 2.65,*** %","106 ± 17,****","14.12 ± 9.89,** %","399 ± 21,***"
N4: SEQ ID NO: 1 with deletion of positions 15-18 and positions 1-3 (RFLAKENVTQD),"11.34 ± 2.73,*** %","19.04 ± 8.54,*** %","268 ± 20,*","411 ± 75,**","5.96 ± 2.32,*** %","357 ± 21,***","15.74 ± 4.83,* %","37 ± 4,****"
N27: SEQ ID NO: 1 with addition of one amino acid at the carboxyl terminal and PEG modification at the carboxyl terminal (YRVRFLAKENVTQDAEDNC-{PEG}; reading uncertain),"13.42 ± 3.35,*** %","27.19 ± 7.04,*** %","143 ± 25,***","369 ± 52,***","12.53 ± 3.88,** %","469 ± 56,**","21.24 ± 3.73,* %","242 ± 35,****"
N38: SEQ ID NO: 1 with one amino acid added at each terminal and PEG modification at the carboxyl terminal (FYRVRFLAKENVTQDAEDNC-{PEG}; reading uncertain),"19.23 ± 7.52,** %","24.87 ± 5.81,*** %","116 ± 27,***","249 ± 42,****","15.57 ± 3.65,* %","380 ± 32,***","12.46 ± 2.5,*** %","2.62 ± 21,****"
"N50: SEQ ID NO: 1 with N18R, addition of 2 amino acid at the carboxyl terminal, PEG modification at the amino terminal ({PEG}-YRVRFLAKENVTQDAEDRCT; reading uncertain)","11.80 ± 4.15,*** %","14.92 ± 8.62,*** %","230 ± 11,**","243 ± 46,****","15.97 ± 2.93,** %","192 ± 16,****","18.35 ± 3.91,** %","310 ± 30,***"
"N51: SEQ ID NO: 1 with A15R, one amino acid added at each terminal, PEG modification at the amino terminal ({PEG}-FYRVRFLAKENVTQDREDNC; reading uncertain)","17.93 ± 5.55,** %","20.85 ± 8.10,*** %","214 ± 17,***","248 ± 39,****","37.96 ± 3.60,* %","306 ± 46,***","10.6 ± 2.33,*** %","282 ± 28,****"
"N45: SEQ ID NO: 1 with V11R, deletion of positions 1-5 and 15-18, PEG modification at the carboxyl terminal (LAKENRTQD-{PEG}; reading uncertain)","24.22 ± 6.27,** %","45.16 ± 5.74,** %","135 ± 10,***","155 ± 10,****","8.79 ± 2.28,*** %","162 ± 15,****","5.53 ± 2.87,*** %","358 ± 23,***"
